Experimental data published in ChEMBL document CHEMBL4339234, “Synthesis and in vitro biological evaluation of new P2X7R radioligands [11C]halo-GSK1482160 analogs” (Bioorg Med Chem Lett, 2019).

Key:
P2X purinoceptor 7 [1] = target: T1, P2X purinoceptor 7 (Homo sapiens, UniProt Q99572); assay: Competitive displacement of [11C]GSK1482160 from human recombinant P2X7 receptor expressed in HEK293 cell membranes incubated for 30 mins by scintillation counting method based radioligand competitive binding assay
T1 sequence (Q99572 whole entry): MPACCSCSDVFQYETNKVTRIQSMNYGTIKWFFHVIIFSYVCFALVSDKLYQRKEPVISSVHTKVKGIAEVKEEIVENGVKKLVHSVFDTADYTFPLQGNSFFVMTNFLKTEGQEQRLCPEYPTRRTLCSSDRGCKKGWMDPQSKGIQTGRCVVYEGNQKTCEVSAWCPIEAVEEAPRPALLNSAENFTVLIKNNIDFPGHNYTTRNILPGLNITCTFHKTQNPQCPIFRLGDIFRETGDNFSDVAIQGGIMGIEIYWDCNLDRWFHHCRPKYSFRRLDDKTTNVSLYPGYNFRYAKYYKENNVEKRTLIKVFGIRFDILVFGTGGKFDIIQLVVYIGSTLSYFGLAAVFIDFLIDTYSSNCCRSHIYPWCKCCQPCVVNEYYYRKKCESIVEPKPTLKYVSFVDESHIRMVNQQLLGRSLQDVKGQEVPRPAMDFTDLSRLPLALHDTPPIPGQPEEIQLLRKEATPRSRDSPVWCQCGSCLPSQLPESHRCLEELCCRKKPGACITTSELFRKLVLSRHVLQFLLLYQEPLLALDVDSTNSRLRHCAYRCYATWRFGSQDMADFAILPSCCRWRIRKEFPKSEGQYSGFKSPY

P2X purinoceptor 7 [2] = target: T1, P2X purinoceptor 7; assay: Displacement of [11C]GSK1482160 from human recombinant P2X7 receptor expressed in HEK293 cell membranes incubated for 30 mins by scintillation counting method based radioligand competitive binding assay

Ki (P2X purinoceptor 7 [1]) [nM] | IC50 (P2X purinoceptor 7 [2]) [nM] | SMILES
3.1 | – | CN1C(=O)CC[C@H]1C(=O)NCc1cccc(C(F)(F)F)c1Cl [GSK1482160]
2.5 | 7.1 | CN1C(=O)CC[C@H]1C(=O)NCc1cccc(C(F)(F)F)c1Br
54.2 | 153 | CN1C(=O)CC[C@H]1C(=O)NCc1cccc(C(F)(F)F)c1F
1.9 | 5.3 | CN1C(=O)CC[C@H]1C(=O)NCc1cccc(C(F)(F)F)c1I
